Results as given in patent US11951094B2, “TLR2 modulator compounds, pharmaceutical compositions and uses thereof” (Axial Therapeutics, Inc., priority 2020, dated 2024).

Target: TLR2 (Homo sapiens, UniProt O60603)
Assay: TLR2 agonist screening assay, HEK-Blue TLR2 reporter cell line (NF-kB-driven SEAP, absorbance at 600 nm)
Assay type: cell-based
Set-up: host or cells: HEK-293 (HEK-Blue TLR2 reporter cell line)
Details: HEK-Blue TLR2 reporter cells, agonist mode; average of all runs (Table 4)
Outline: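 Read-out: SEAP colour change, A600, after overnight agonist exposure. Cells: HEK-293 overexpressing TLR2, NF-kB-SEAP reporter, ~40,000/well, plated 16-24 h prior.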

Sequence of TLR2 (O60603 21-784): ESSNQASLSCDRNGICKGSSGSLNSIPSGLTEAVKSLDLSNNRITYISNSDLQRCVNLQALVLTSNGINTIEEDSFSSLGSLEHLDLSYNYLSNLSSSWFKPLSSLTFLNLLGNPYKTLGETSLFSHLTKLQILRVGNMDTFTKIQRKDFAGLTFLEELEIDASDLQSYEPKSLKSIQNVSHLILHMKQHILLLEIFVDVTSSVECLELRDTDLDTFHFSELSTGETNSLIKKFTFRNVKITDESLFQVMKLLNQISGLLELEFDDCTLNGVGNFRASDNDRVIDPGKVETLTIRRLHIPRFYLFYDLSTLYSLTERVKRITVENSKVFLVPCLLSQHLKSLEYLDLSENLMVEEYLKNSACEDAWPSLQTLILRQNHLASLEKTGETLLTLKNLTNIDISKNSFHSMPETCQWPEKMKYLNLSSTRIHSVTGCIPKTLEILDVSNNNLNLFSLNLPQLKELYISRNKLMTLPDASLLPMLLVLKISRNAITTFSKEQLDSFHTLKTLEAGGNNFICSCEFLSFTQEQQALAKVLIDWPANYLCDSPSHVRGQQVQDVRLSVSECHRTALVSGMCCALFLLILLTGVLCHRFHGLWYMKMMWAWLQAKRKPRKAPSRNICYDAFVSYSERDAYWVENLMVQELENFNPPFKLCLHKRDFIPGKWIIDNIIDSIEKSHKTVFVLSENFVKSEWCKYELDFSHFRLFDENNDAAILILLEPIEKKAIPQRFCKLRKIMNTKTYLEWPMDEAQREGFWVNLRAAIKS

Row | SMILES | EC50 [nM]
1 | CCCCCCCC(=O)N1CCN(S(=O)(=O)c2ccc(C(=O)N3C[C@@H](C(=O)N[C@H]4C[C@@H]4c4ccccc4)[C@H](C(=O)N[C@H]4C[C@@H]4c4ccccc4)C3)cc2)C[C@@H]1C(=O)NCCCCCC [Compound 161, (3S,4S)-1-(4-(((R)-3-(hexylcarbamoyl)-4-octanoylpiperazin-1-yl)sulfonyl)benzoyl)-N3,N4-bis((1S,2R)-2-phenylcyclopropyl)pyrrolidine-3,4-dicarboxamide] | > 1000
2 | CCCCCCCCCCCCCCNC(=O)[C@@H]1CN(C(=O)c2cccc(C(=O)N3C[C@@H](C(=O)N[C@H]4C[C@@H]4c4ccccc4)[C@H](C(=O)N[C@H]4C[C@@H]4c4ccccc4)C3)c2)CCN1C(C)=O [Compound 164, (3S,4S)-1-(3-((S)-4-acetyl-3-(tetradecylcarbamoyl)piperazine-1-carbonyl)benzoyl)-N3,N4-bis ((1S,2R)-2-phenylcyclopropyl) pyrrolidine-3,4-dicarboxamide] | > 1000
3 | CCCCCCCCCCCCCCC(=O)NC1CCN(S(=O)(=O)c2ccc(C(=O)N3C[C@@H](C(=O)N[C@H]4C[C@@H]4c4ccccc4)[C@H](C(=O)N[C@H]4C[C@@H]4c4ccccc4)C3)cc2)CC1 [Compound 165, (3S,4S)-1-(4-((4-pentadecanamidopiperidin-1-yl)sulfonyl)benzoyl)-N3,N4-bis((1S,2R)-2-phenylcyclopropyl)pyrrolidine-3,4-dicarboxamide] | > 1000
4 | CCCCCCCCN1C(=O)N(Cc2ccc(C(=O)N3C[C@@H](C(=O)N[C@H]4C[C@@H]4c4ccccc4)[C@H](C(=O)N[C@H]4C[C@@H]4c4ccccc4)C3)cc2)C[C@H]1C(=O)NCCCCCC [Compound 167, (3S,4S)-1-(4-(((S)-4-(hexylcarbamoyl)-3-octyl-2-oxoimidazolidin-1-yl)methyl)benzoyl)-N3,N4-bis((1S,2R)-2-phenylcyclopropyl)pyrrolidine-3,4-dicarboxamide] | 0.1 to 50
5 | CCCCCCCCN1C(=O)N(Cc2ccc(C(=O)N3C[C@@H](C(=O)N[C@H]4C[C@@H]4c4ccccc4)[C@H](C(=O)N[C@H]4C[C@@H]4c4ccccc4)C3)cc2)C[C@@H]1C(=O)NCCCCCC [Compound 168, (3S,4S)-1-(4-(((R)-4-(hexylcarbamoyl)-3-octyl-2-oxoimidazolidin-1-yl)methyl)benzoyl)-N3,N4-bis((1S,2R)-2-phenylcyclopropyl)pyrrolidine-3,4-dicarboxamide] | 51 to 350
6 | CCCCCCCCCCCCCCCN1C[C@H](NC(=O)c2ccc(C(=O)N3C[C@@H](C(=O)N[C@H]4C[C@@H]4c4ccccc4)[C@H](C(=O)N[C@H]4C[C@@H]4c4ccccc4)C3)cc2)CCC1=O [Compound 169, (3S,4S)-1-(4-(((R)-6-oxo-1-pentadecylpiperidin-3-yl)carbamoyl)benzoyl)-N3,N4-bis((1S,2R)-2-phenylcyclopropyl)pyrrolidine-3,4-dicarboxamide] | > 1000
7 | CCCCCCCC(=O)N1CCN(S(=O)(=O)c2cccc(C(=O)N3C[C@@H](C(=O)N[C@H]4C[C@@H]4c4ccccc4)[C@H](C(=O)N[C@H]4C[C@@H]4c4ccccc4)C3)c2)C[C@H]1C(=O)NCCCCCC [Compound 170, (3S,4S)-1-(3-(((S)-3-(hexylcarbamoyl)-4-octanoylpiperazin-1-yl)sulfonyl)benzoyl)-N3,N4-bis((1S,2R)-2-phenylcyclopropyl)pyrrolidine-3,4-dicarboxamide] | > 1000
8 | CCCCCCCC(=O)N[C@@H](CNC(=O)c1ccc(C(=O)N2C[C@@H](C(=O)N[C@H]3C[C@@H]3c3ccccc3)[C@H](C(=O)N[C@H]3C[C@@H]3c3ccccc3)C2)cc1)C(=O)NCCCCCC [Compound 173, (3S,4S)-1-(4-(((S)-3-(hexylamino)-2-octanamido-3-oxopropyl)carbamoyl)benzoyl)-N3,N4-bis((1S,2R)-2-phenylcyclopropyl)pyrrolidine-3,4-dicarboxamide] | 0.1 to 50
9 | CCCCCCCCN1CC(C(=O)NCCCCCC)CN(Cc2ccc(C(=O)N3C[C@@H](C(=O)N[C@H]4C[C@@H]4c4ccccc4)[C@H](C(=O)N[C@H]4C[C@@H]4c4ccccc4)C3)cc2)C1=O (stereo partly drawn) [Compound 178, (3S,4S)-1-(4-((5-(hexylcarbamoyl)-3-octyl-2-oxotetrahydropyrimidin-1 (2H)-yl)methyl)benzoyl)-N3,N4-bis((1S,2R)-2-phenylcyclopropyl)pyrrolidine-3,4-dicarboxamide] | 351 to 1000
10 | CCCCCCCCCCCCCCNC(=O)C1COC(=O)N(Cc2ccc(C(=O)N3C[C@@H](C(=O)N[C@H]4C[C@@H]4c4ccccc4)[C@H](C(=O)N[C@H]4C[C@@H]4c4ccccc4)C3)cc2)C1 (stereo partly shown) [Compound 179] | > 1000
11 | CCCCCCCCCCCCCCCN1C[C@@H](NC(=O)c2ccc(C(=O)N3C[C@@H](C(=O)N[C@H]4C[C@@H]4c4ccccc4)[C@H](C(=O)N[C@H]4C[C@@H]4c4ccccc4)C3)cc2)CCC1=O [Compound 180, (3S,4S)-1-(4-(((S)-6-oxo-1-pentadecylpiperidin-3-yl)carbamoyl)benzoyl)-N3,N4-bis((1S,2R)-2-phenylcyclopropyl)pyrrolidine-3,4-dicarboxamide] | > 1000

Continued, values first:

Row | EC50 [nM] | SMILES
12 | 351 to 1000 | CCCCCCCCCCCCCCNC(=O)[C@H]1CN(C(=O)c2ccc(C(=O)N3C[C@@H](C(=O)N[C@H]4C[C@@H]4c4ccccc4)[C@H](C(=O)N[C@H]4C[C@@H]4c4ccccc4)C3)cc2)CCN1C(C)=O [Compound 163, (3S,4S)-1-(4-((R)-4-acetyl-3-(tetradecylcarbamoyl)piperazine-1-carbonyl)benzoyl)-N3,N4-bis((1S,2R)-2-phenylcyclopropyl)pyrrolidine-3,4-dicarboxamide]
13 | > 1000 | CCCCCCCCCCCCCCC(=O)NC1CCN(C(=O)c2cccc(C(=O)N3C[C@@H](C(=O)N[C@H]4C[C@@H]4c4ccccc4)[C@H](C(=O)N[C@H]4C[C@@H]4c4ccccc4)C3)c2)CC1 [Compound 166, (3S,4S)-1-(3-(4-pentadecanamidopiperidine-1-carbonyl)benzoyl)-N3,N4-bis((1S,2R)-2-phenylcyclopropyl)pyrrolidine-3,4-dicarboxamide]
14 | > 1000 | CCCCCCCC(=O)N1CCN(S(=O)(=O)c2cccc(C(=O)N3C[C@@H](C(=O)N[C@H]4C[C@@H]4c4ccccc4)[C@H](C(=O)N[C@H]4C[C@@H]4c4ccccc4)C3)c2)C[C@@H]1C(=O)NCCCCCC [Compound 171, (3S,4S)-1-(3-(((R)-3-(hexylcarbamoyl)-4-octanoylpiperazin-1-yl)sulfonyl)benzoyl)-N3,N4-bis((1S,2R)-2-phenylcyclopropyl)pyrrolidine-3,4-dicarboxamide]
15 | > 1000 | CCCCCCCCCCCCCCNC(=O)[C@H]1CN(C(=O)c2cccc(C(=O)N3C[C@@H](C(=O)N[C@H]4C[C@@H]4c4ccccc4)[C@H](C(=O)N[C@H]4C[C@@H]4c4ccccc4)C3)c2)CCN1C(C)=O [Compound 172, (3S,4S)-1-(3-((R)-4-acetyl-3-(tetradecylcarbamoyl)piperazine-1-carbonyl)benzoyl)-N3,N4-bis((1S,2R)-2-phenylcyclopropyl)pyrrolidine-3,4-dicarboxamide]
16 | > 1000 | CO[C@H]1CN(C(=O)c2ccc(C(=O)N3C[C@@H](C(=O)N[C@H]4C[C@@H]4c4ccccc4)[C@H](C(=O)N[C@H]4C[C@@H]4c4ccccc4)C3)cc2)C[C@@H]1NC(=O)NCCc1ccc(F)cc1 [Compound 182, (3S,4S)-1-(4-((3S,4S)-3-(3-(4-fluorophenethyl)ureido)-4-methoxypyrrolidine-1-carbonyl)benzoyl)-N3,N4-bis((1S,2R)-2-phenylcyclopropyl)pyrrolidine-3,4-dicarboxamide]
